Reference: ChEMBL document CHEMBL1144145, “Sesquiterpene polyol esters from the leaves of maytenus macrocarpa” (J Nat Prod, 1999)

What was measured:
Type in all cases: functional, cell-based
A549 = test: Cytotoxicity against human A549 cells by […]
HT-29 = test: Cytotoxicity against human HT-29 cells by […]
P388 = test: Cytotoxicity against mouse P388 cells by […]
[1] = Cytotoxicity against human MEL28 cells by […]; details: SK-MEL-28

Measured: IC50

CC(=O)OC[C@@]12[C@@H](OC(=O)c3ccccc3)CC[C@](C)(O)[C@]13OC(C)(C)[C@H]([C@H](OC(C)=O)[C@H]2OC(=O)c1ccccc1)[C@H]3OC(C)=O
> 25 µg/mL: A549 | HT-29 | P388 | [1]
